Positions of bridges follow the written chain, without caps; N, C: chain ends. Non-standard residues stand in square brackets, D forms with d. No end group written: not given here. hArg = N=C(N)NCCCC[C@H](N)C(=O)O; Cit = NC(=O)NCCC[C@H](N)C(=O)O
These substances were tested against T1, murine E^d MHC class II allele (Mus musculus, UniProt P01904+P01915) (assay: simultaneous assay, E^d allele (A20 APC, G28.C9 T hybridoma, HEL106-116; HT-2 [3H]TdR readout)). Settings: Table 15; AE peptide 16 μM; supernatant 1:4.
T1 sequence (P01904 26-255): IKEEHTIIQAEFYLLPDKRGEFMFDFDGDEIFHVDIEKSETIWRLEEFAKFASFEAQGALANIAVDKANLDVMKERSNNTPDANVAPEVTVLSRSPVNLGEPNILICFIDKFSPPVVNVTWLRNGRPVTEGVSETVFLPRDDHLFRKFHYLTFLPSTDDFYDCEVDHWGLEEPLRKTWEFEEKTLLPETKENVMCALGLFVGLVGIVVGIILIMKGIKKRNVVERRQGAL
T1 sequence (P01915 27-264 limits assumed): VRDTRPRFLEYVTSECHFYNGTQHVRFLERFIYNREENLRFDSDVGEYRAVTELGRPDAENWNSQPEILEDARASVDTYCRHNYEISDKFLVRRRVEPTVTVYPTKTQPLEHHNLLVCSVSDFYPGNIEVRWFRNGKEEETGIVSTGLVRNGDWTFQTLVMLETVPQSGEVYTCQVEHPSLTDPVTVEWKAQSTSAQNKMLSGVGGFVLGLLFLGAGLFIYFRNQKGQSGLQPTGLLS
Type: cell-based
Set-up: The A20 and CH27 B cell lymphoma lines express H-2^d and H-2^k alleles, respectively; endogenous in cells; host or cells: A20 B cell lymphoma (mitomycin C-treated or paraformaldehyde-fixed)
Procedure, shortened: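 Antigenic peptide, mitomycin C-treated APC, effector compound and allele-restricted T hybridoma cultured together for 24 h. Supernatant then transferred to interleukin-dependent HT-2 cells. T cell activation quantified as [3H]TdR uptake by HT-2 cells.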
For Ac-A[Cit]NKNPK-NH2 [AE351], the “Times Baseline Response, E^d” value was 0.8.
In the case of Ac-LR Orn K HArg PK-NH2 [AE340], the “Times Baseline Response, E^d” value is reported as 46.6.
With Ac-LRMKNPF-NH2 [AE350] the “Times Baseline Response, E^d” value was 28.6.

Same assay, conditions: Table 16; AE peptide 4 μM; supernatant 1:8
For Ac-FK HArg MYP Cit-NH2 [AE371], the “Times Baseline Response, E^d” value was 1.6.
Ac-LKMKYPK-NH2 [AE362] was tested, and the “Times Baseline Response, E^d” value was 1.2.
Ac-LRLKYPN-NH2 [AE368] was tested, and the “Times Baseline Response, E^d” value was 9.4.
Ac-LK HArg KYPK-NH2 [AE363] was tested, and the “Times Baseline Response, E^d” value was 1.6.
With Ac-LRMMYP[Cit]-NH2 [AE367] the “Times Baseline Response, E^d” value was 1.0.
Ac-L[hArg]LKYPK-NH2 [AE361] was tested, and the “Times Baseline Response, E^d” value was 8.2.
In the case of Ac-LR HArg MYPK-NH2 [AE365], the “Times Baseline Response, E^d” value is reported as 6.1.
With Ac-LRMKYPN-NH2 [AE370] the “Times Baseline Response, E^d” value was 8.7.
For Ac-LR HArg KYP Cit-NH2 [AE366], the “Times Baseline Response, E^d” value was 7.3.
With Ac-L[hArg]MKYPK-NH2 [AE360] the “Times Baseline Response, E^d” value was 5.8.
Ac-LRMKYP[Cit]-NH2 [AE364] was tested, and the “Times Baseline Response, E^d” value was 14.0.

Same assay, conditions: Table 18; AE peptide 64 μM; supernatant 1:4
In the case of Ac-LRMKLPK (lactam 4-C) [AE382], the “Times Baseline Response, E^d” value is reported as 1.9.
For “cyclic LRMKLPK (bridge (positions not given here); also: cyclic, ring type not given here) [AE381, “head-to-tail” cyclization from the amino-terminus to the carboxyl-terminus of AE114]”, the “Times Baseline Response, E^d” value was 2.1.

Same assay, conditions: Tables 12 and 18
“cyclic LRMKLPK (bridge (positions not given here); also: cyclic, ring type not given here) [AE381, “head-to-tail” cyclization from the amino-terminus to the carboxyl-terminus of AE114]” was tested, and the “activity in simultaneous assay on E^d and E^k, in words” value was “weak”.

Same assay, conditions: text on Table 18
With Ac-LRMKLPK (lactam 4-C) [AE382] the “activity in simultaneous assay on E^d, in words” value was “relatively inactive”.

Reference: US6835382B2, “Ii peptide therapeutics to enhance antigen presentation” (University of Massachusetts, priority 1996, dated 2004)
